Reference: PMC9848351, “Discovery of new pyridine-quinoline hybrids as competitive and non-competitive PIM-1 kinase inhibitors with apoptosis induction and caspase 3/7 activation capabilities” (Journal of Enzyme Inhibition and Medicinal Chemistry, 2023)

Assays:
[1] = system: Colon cancer cells (Caco-2); assay: MTT anticancer activity, Caco-2; type: cell-based, human; settings: for IC50: Homo sapiens, Caco-2, 72 h, MTT, mean ± SEM; for Caco-2 LE: ligand efficiency from IC50 and number of heavy atoms; for Caco-2 LLE: ligand lipophilic efficiency, potency in terms of lipophilicity; for Caco-2 SI: selectivity index, Wi-38 versus Caco-2
Summary of the method: (§1)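 Cells seeded at 5x10^3/well (Caco-2 in DMEM, others in RPMI-1640, 10% FBS) and exposed to serial compound concentrations for 72 h at 37 °C, 5% CO2, starting 24 h after seeding. MTT (3 h, 37 °C) read at 570 nm after DMSO solubilisation; IC50 calculated from viability.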

[2] = system: liver cancer cell line (HepG-2); assay: MTT anticancer activity, HepG-2; type: cell-based, human; settings: for IC50: Homo sapiens, HepG2, HepG-2, 72 h, MTT, mean ± SEM; for activity against HepG-2 compared to the reference: fold versus doxorubicin IC50
Summary of the method: as §1

[3] = system: PC-3; assay: Flow cytometric annexin V/PI analysis of apoptosis, PC-3; type: cell-based, human; settings: IC50 of compound, 72 h, mean ± SEM
Method: The apoptosis-dependent […] was determined by quantification of annexin-stained apoptotic cells using the FITC signal detector (FL1) against the phycoerythrin emission signal detector (FL2) (Supplementary Page S55). […]
MTT method was used for assaying cell viability 25. Twenty microliters of 5 mg/ml MTT (Sigma, USA) was added to each well and the plate was incubated at […]
37 °C for 3 h. […]
Graphpad Instat software.
Determination of the anticancer activity
Anticancer effect of the above-mentioned compounds was evaluated using four human cancer cell lines. Colon cancer cells (Caco-2) were maintained in DMEM (Lonza, USA) containing 10% FBS while myeloid leukemia cell line (NFS-60), liver cancer cell line (HepG-2) and prostate cancer cell line (PC-3) were cultured in RPMI-1640 (Lonza, USA) supplemented with 10% FBS. All cancer cells (5x10^3 cells/well) were seeded in sterile 96-well plates. After 24h, serial concentrations of the tested compounds and Dox were incubated with four cancer cell lines for 72 h at 37 °C in 5% CO2 incubator. MTT method was done as described above. The Graphpad Instat software was used for calculating the half maximal inhibitory concentration (IC50) values. […]
Flow cytometric analysis of apoptosis
Caco-2, PC-3 and NFS-60 cell lines. After trypsinization, the untreated and treated cells were incubated with annexin V/PI for 15 min. Then cells were fixed and incubated with streptavidin-fluorescein (5 µg/mL) for 15 min. The apoptosis-dependent anticancer effect was determined by quantification of annexin-stained apoptotic cells using the FITC signal detector (FL1) against the phycoerythrin emission signal detector (FL2). […]

[4] = system: HepG-2; assay: Flow cytometric annexin V/PI analysis of apoptosis, HepG-2; type: cell-based, human; settings: IC50 of compound, 72 h, mean ± SEM
[5] = molecular target: T1, PIM-1 kinase (Homo sapiens, UniProt P11309); assay: Mechanism of PIM-1 kinase inhibition, Lineweaver–Burk double-reciprocal plot; type: biochemical; set-up: purchased Promega Corporation #V4032; settings: for Vmax compared with control: Y-intercept
[6] = system: myeloid leukaemia cell line (NFS-60); assay: MTT anticancer activity, NFS-60; type: cell-based; settings: for IC50: NFS-60, 72 h, MTT, mean ± SEM; for activity against NFS-60 compared to the reference: fold versus doxorubicin IC50
Summary of the method: as §1

[7] = system: prostate cancer cell line (PC-3); assay: MTT anticancer activity, PC-3; type: cell-based, human; settings: Homo sapiens, 72 h, PC-3, 72 h, mean ± SEM
Summary of the method: as §1

[8] = molecular target: T1, PIM-1 kinase; assay: PIM-1 kinase inhibitory activity (Promega kinase assay kit)
Text: PIM-1 and PIM-2 kinase inhibitory activity
PIM-1 and PIM-2 kinase utilizing PIM-1 and PIM-2 Kinase Assay Kit – Promega Corporation catalog #V4032, following the manufacturer’s instructions 26

T1 sequence (P11309 whole entry): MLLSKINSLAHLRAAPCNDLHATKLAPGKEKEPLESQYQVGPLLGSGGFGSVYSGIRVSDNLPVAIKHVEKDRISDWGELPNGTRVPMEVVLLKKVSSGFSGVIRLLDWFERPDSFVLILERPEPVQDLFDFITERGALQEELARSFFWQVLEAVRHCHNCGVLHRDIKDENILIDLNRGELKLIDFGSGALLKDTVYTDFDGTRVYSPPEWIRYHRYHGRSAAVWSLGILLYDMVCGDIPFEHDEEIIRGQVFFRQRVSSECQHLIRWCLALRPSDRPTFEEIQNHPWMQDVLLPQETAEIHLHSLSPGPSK

Row | SMILES | IC50 [1] | Caco-2 LE [1] | Caco-2 LLE [1] | Caco-2 SI [1] | IC50 [2] | total percentage of the apoptotic cell population, PC-3 [3] | total percentage of the apoptotic cell population, HepG-2 [4] | mechanism of PIM-1 kinase inhibition [5] | Vmax compared with control [5] | IC50 [6] | IC50 [7] | activity against HepG-2 compared to the reference [2] | IC50 [8] | activity against NFS-60 compared to the reference [6]
1 | N#Cc1c(-c2cc3cc(Cl)ccc3nc2N2CCOCC2)cc(-c2cccc(O)c2)[nH]c1=O [5b, 4-(6-Chloro-2-morpholin-4-yl-quinolin-3-yl)-6-(3-hydroxyphenyl)-2-oxo-1,2-dihydropyridine-3-carbonitrile] | 45.3 ± 1 nM | 0.30 | 3.28 | 3.775 | 5.28 ± 0.1 nM | 50.7 ± 0.58% | 58.9 ± 0.88% | competitive inhibitors | the same Vmax in comparison with control | 9.32 ± 4 nM | 26.1 ± 4 nM |  |  | 
2 | COc1ccc2nc(N3CCOCC3)c(-c3cc(-c4cccc(O)c4)[nH]c(=O)c3C#N)cc2c1 [5c, 6-(3-Hydroxyphenyl)-4-(6-methoxy-2-morpholin-4-yl-quinolin-3-yl)-2-oxo-1,2-dihydropyridine-3-carbonitrile] | 36.1 ± 0.1 nM | 0.30 | 4.00 | 19.861 | 7.6 ± 0.1 nM | 47.26 ± 0.92% | 54.14 ± 0.42% | competitive inhibitors | the same Vmax in comparison with control | 18.1 ± 1 nM | 27.2 ± 3 nM |  |  | 
3 | N#Cc1c(-c2cc3ccccc3[nH]c2=O)cc(-c2cccc(O)c2)[nH]c1=O [13a, 6-(3-Hydroxyphenyl)-2-oxo-4-(2-oxo-1,2-dihydroquinolin-3-yl)-1,2-dihydropyridine-3-carbonitrile] | 22.8 ± 1 nM | 0.39 | 5.31 | 1.118 | 2.38 nM | 59.71 ± 0.82% | 70.59 ± 1.07% | both competitive and non-competitive inhibitor | reduced in Vmax value | 9 nM | 20 ± 3 nM | twenty-one-fold more active | 1270 nM | three-fold
4 | COc1ccc2[nH]c(=O)c(-c3cc(-c4cccc(O)c4)[nH]c(=O)c3C#N)cc2c1 [13c, 6-(3-Hydroxyphenyl)-4-(6-methoxy-2-oxo-1,2-dihydroquinolin-3-yl)-2-oxo-1,2-dihydropyridine-3-carbonitrile] | 33.7 ± 6 nM | 0.35 | 5.11 | 1.033 | 3.77 ± 0.1 nM | 57.91 ± 0.34% | 66.83 ± 1.32% |  |  | 8.8 ± 0.1 nM | 22.5 ± 2 nM | thirteen-fold high | 7780 nM | three-fold high
5 | N#Cc1c(-c2cc3ccccc3[nH]c2=O)cc(-c2cccc(O)c2)nc1S [14a, 6-(3-Hydroxyphenyl)-2-mercapto-4-(2-oxo-1,2-dihydroquinolin-3-yl)pyridine-3-carbonitrile] | 14.1 ± 4 nM | 0.40 | 5.18 | 21.206 | 12.7 nM | 56.545 ± 0.98% | 42.155 ± 0.16% | competitive inhibitors | the same Vmax in comparison with control | 23.2 nM | 16.8 ± 0.1 nM |  | 385 nM | 
